Experimental data reported in PubChem BioAssay (NCI).
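Cultured in 96-well plates, cells were exposed to test compound for 48 hours across five concentrations. Definition used: TGI = concentration required for complete inhibition of growth.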

How the values were obtained:
Experiment in all cases: NCI anticancer screen, dose series, 48 h
[1] = tested on: A549 NSCLC
[2] = tested on: KM12 colon
[3] = tested on: DU-145 prostate
[4] = tested on: NCI-H226 lung
[5] = tested on: MALME-3M melanoma
[6] = tested on: SF-295 CNS
[7] = tested on: HCT-116 colon
[8] = tested on: CAKI-1 renal
[9] = tested on: UO-31 renal
[10] = tested on: HOP-62 NSCLC
[11] = tested on: HCC-2998 colon
[12] = tested on: MDA-N
[13] = tested on: OVCAR-4 ovarian
[14] = tested on: SW-620 colon
[15] = tested on: NCI/ADR-RES ovarian
[16] = tested on: NCI-H522 lung
[17] = tested on: RXF 393 renal
[18] = tested on: SK-MEL-5 melanoma
[19] = tested on: SF-539 CNS
[20] = tested on: MDA-MB-435
[21] = tested on: SNB-75 CNS
[22] = tested on: UACC-62 melanoma
[23] = tested on: PC-3 prostate
[24] = tested on: TK-10 renal
[25] = tested on: NCI-H23 lung
[26] = tested on: HCT-15 colon
[27] = tested on: CCRF-CEM leukemia
[28] = tested on: LOX IMVI melanoma
[29] = tested on: EKVX NSCLC
[30] = tested on: K-562 leukemia
[31] = tested on: SN12C renal
[32] = tested on: OVCAR-8 ovarian
[33] = tested on: SNB-19 CNS
[34] = tested on: T-47D breast
[35] = tested on: ACHN renal
[36] = tested on: HOP-92 NSCLC
[37] = tested on: 786-0 renal
[38] = tested on: UACC-257 melanoma
[39] = tested on: M14 melanoma
[40] = tested on: U251 CNS
[41] = tested on: RPMI-8226 leukemia
[42] = tested on: A498 renal
[43] = tested on: OVCAR-3 ovarian
[44] = tested on: SK-MEL-2 melanoma
[45] = tested on: MOLT-4 leukemia
[46] = tested on: MCF7 breast
[47] = tested on: COLO 205 colon
[48] = tested on: SK-MEL-28 melanoma
[49] = tested on: SK-OV-3 ovarian
[50] = tested on: MDA-MB-231 breast
[51] = tested on: IGROV1 ovarian
[52] = tested on: HS 578T breast
[53] = tested on: HT29 colon
[54] = tested on: SF-268 CNS
[55] = tested on: OVCAR-5 ovarian
[56] = tested on: HL-60(TB) leukemia
[57] = tested on: SR leukemia
[58] = tested on: BT-549 breast
[59] = tested on: NCI-H460 lung

Measured: TGI

CN(C)C(=O)N1N[C@H](c2ccccc2)[C@@H]1c1ccccc1
not listed: [52] | [53] | [54] | [55] | [56] | [57] | [58] | [59]
> 100 µM: all other assays above

COC(=O)/C=C1\C(CO[Si](C)(C)C(C)(C)C)OC(n2cc(C)c(=O)n(C)c2=O)C1O[Si](C)(C)C(C)(C)C (stereo unspecified)
not listed: [8] | [11] | [13] | [17] | [19] | [34] | [38] | [56] | [57] | [58] | [59]
> 100 µM: all other assays above

CC1(C)CC(=O)c2c(N)n[nH]c2C1
not listed: [24] | [26] | [34] | [49] | [52] | [54]
> 100 µM: all other assays above

COC1(OC)CC(CO)(COc2cc(Cl)nc(N)n2)C1
not listed: [39] | [41] | [42] | [56] | [57]
> 100 µM: all other assays above
